We go through 4 substances from PMC8427292, “Identification and Characterization of Antimicrobial Peptides From Butterflies: An Integrated Bioinformatics and Experimental Study” (Frontiers in Microbiology, 2021).

One assay has as its system Escherichia coli biofilm. The experiment in a line: Antibiofilm assay (crystal violet). The format is cell-based. Details: unit not given here. The note with it: E. coli, 570 nm; for MBIC: biofilm formed in presence of AMPs (prevention); for MBEC: pre-formed biofilm (eradication). As to the method: (§1) Biofilms of the aforementioned microbes were allowed to form in microtiter plates under respective culture conditions in the absence (eradication) or presence (prevention) of AMPs. After incubation, the culture supernatant was discarded, and each well was gently rinsed to remove planktonic bacteria. Biofilms were fixed with methanol and stained with 0.1% crystal violet for 20 min; then the dye bound to the cells was resolubilized with ethanol, and the absorbance of the solution was evaluated at 570 nm using a microplate reader ([Abouelhassan et al., 2017]).

The subject of assay [1] is Staphylococcus aureus biofilm. The experiment in a line: Antibiofilm assay (crystal violet). The format is cell-based. Details: unit not given here. The note with it: S. aureus, 570 nm; for MBEC: biofilm eradication; for MBIC: biofilm prevention. As for the experimental part:
as §1

Another assay deals with C. albicans. Briefly: In vivo antimicrobial assay, skin infection mouse model. To be noted: neutropenic mice, s.c. 100 μl of 1.0 × 10^8 CFU⋅ml^–1 C. albicans; 100 μl AMP at MIC s.c. daily from 12 h post-infection; day 4; vs control. As to the method: (§2) In vivo antimicrobial activities of the designed AMPs were examined in neutropenic mice following subcutaneous inoculation of 100 μl of 1.0 × 10^8 CFU⋅ml^–1 E. coli, S. aureus, or C. albicans ([Lee et al., 2005]). At 12 h post-infection, 100 μl of AMPs at the respective MIC value was applied by subcutaneous injection each day. Mice were sacrificed on day 4, and the infected area was carefully excised and homogenized. The CFU count was determined after overnight incubation of the homogenate aliquots. All animal care and experiments were performed in compliance with institutional and government guidelines and were approved by the Peking Union Medical College Hospital Animal Care and Use Committee.

The test system of a further assay is Candida albicans biofilm. Briefly: Antibiofilm assay (crystal violet). The format is cell-based. The note with it: C. albicans, 570 nm; for MBEC: biofilm eradication; for MBIC: biofilm prevention. As for the experimental part:
as §1

For a further assay, the system named is S. aureus. The experiment in a line: In vivo antimicrobial assay, skin infection mouse model. The note with it: neutropenic mice, s.c. 100 μl of 1.0 × 10^8 CFU⋅ml^–1 S. aureus; 100 μl AMP at MIC s.c. daily from 12 h post-infection; day 4; vs control. As for the experimental part: as §2
The test system of the next assay is E. coli. The description is as above. The note with it: neutropenic mice, s.c. 100 μl of 1.0 × 10^8 CFU⋅ml^–1 E. coli; 100 μl AMP at MIC s.c. daily from 12 h post-infection; day 4; vs control. As for the experimental part: as §2

No end group written: not given here.

For “GKIPIGAIKKGAKAVGKGLKALNIASTAHDIYSFHHKKKKH [MorA, designed synthetic butterfly moricin analog]”, the MBIC (in the assay on Escherichia coli biofilm; in assay [1]; in the assay with Candida albicans biofilm) was 4 each time. Also, the MBEC in the assay on Escherichia coli biofilm turned out to be 8; in assay [1] it was 16; in the assay with Candida albicans biofilm it was 16. The “CFU count in infected skin” value in the assay with C. albicans was “suppress proliferation”.

For “DKLIGSCVWGAVNYTSDCNAECKRRGYKGGHCGSFANVNCWCET (disulfide (positions not given here)) [DefA, designed synthetic butterfly defensin analog]”, in the assay with Escherichia coli biofilm, the MBIC is 8 and the MBEC was found to be 32. For the same substance, in assay [1], the MBEC is 16 and the MBIC stood at 4.

In the case of “GCVFYECIARCRQRGYLSGGYCTINGCQCL-NH2 (disulfide (positions not given here)) [DefB, designed synthetic butterfly defensin analog, C-terminally amidated]”, in the assay with Escherichia coli biofilm, the MBIC stood at 8 and the MBEC came to 32. For the same substance, in assay [1], the MBEC is listed as 16 and the MBIC came out at 2.

With “KWKIFKKIEKVGRNIRDGIIKAGPAVQVVGQAATIYKGK [CecB, designed synthetic butterfly cecropin analog]”, the MBIC was 2 in the assay with Escherichia coli biofilm, 2 in assay [1] and 16 in the assay with Candida albicans biofilm. Besides, the MBEC was found to be 8 with Escherichia coli biofilm, 16 in assay [1] and 32 with Candida albicans biofilm. In addition, the “CFU count in infected skin” value in the assay on S. aureus and in the assay on E. coli was “attenuate growth” each time.
